# Results published in article PMC6349357, “Computational and experimental analysis of bioactive peptide linear motifs in the integrin adhesome” (PLoS ONE, 2019).
# Marks after values point to notes of the source that are not given here. No end group written: not given here. *: point of attachment. Palmitoyl = CCCCCCCCCCCCCCCC(=O)*
# T1: vinculin (Homo sapiens, UniProt P18206)
# T1 sequence (P18206 1-1066 isoform P18206-2): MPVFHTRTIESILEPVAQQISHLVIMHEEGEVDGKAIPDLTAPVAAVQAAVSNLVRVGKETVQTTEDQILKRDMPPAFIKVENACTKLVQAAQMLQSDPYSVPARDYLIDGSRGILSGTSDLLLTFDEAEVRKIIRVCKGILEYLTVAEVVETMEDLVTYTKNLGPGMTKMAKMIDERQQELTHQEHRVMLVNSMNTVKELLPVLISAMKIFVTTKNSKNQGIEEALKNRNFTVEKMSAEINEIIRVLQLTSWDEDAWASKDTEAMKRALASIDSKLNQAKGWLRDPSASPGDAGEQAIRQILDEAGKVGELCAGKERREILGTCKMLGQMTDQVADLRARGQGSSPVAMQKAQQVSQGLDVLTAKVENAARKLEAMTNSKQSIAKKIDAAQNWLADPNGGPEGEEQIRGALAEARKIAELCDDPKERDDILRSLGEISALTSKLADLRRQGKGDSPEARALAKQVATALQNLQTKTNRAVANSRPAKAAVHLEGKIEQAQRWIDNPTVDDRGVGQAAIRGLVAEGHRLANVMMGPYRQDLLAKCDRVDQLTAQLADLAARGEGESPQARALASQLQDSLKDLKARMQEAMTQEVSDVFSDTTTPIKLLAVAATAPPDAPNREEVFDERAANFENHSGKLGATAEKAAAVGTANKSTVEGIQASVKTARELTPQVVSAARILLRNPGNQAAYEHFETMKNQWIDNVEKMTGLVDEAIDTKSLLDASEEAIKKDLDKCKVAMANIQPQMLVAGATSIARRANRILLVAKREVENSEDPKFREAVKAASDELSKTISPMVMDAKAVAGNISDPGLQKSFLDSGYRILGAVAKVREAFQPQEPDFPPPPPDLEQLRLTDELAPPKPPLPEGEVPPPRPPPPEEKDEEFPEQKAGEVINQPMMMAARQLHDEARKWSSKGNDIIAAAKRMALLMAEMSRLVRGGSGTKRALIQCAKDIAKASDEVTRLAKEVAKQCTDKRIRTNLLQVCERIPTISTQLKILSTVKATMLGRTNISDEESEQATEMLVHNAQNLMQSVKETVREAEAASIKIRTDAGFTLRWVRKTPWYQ
# Assays:
# vinculin [1] = target: T1, vinculin; experiment: Surface plasmon resonance, peptides injected over immobilised vinculin; format: binding; conditions: SPR, CM5 chip, serial peptide injections at 1 mM; rank order
# Method: The SPR experiments were performed using a Biacore T200 system (GE Healthcare), and Series S CM5 or SA chips with 4 flow cells each.
# Lyophilized vinculin was dissolved in flow buffer to a concentration of 1 mg/ml and covalently coupled onto the carboxymethylated dextran matrix of CM5 sensor chips using standard amine coupling. The flow buffer contained 10 mM HEPES, 150 mM NaCl, 3 mM EDTA, 0.05% surfactant P20. The chip was activated with an injection of 70 μl of a mixture of 0.05 M EDC and 0.2 M NHS, followed by the injection of approximately 70 μl of 10 μg/ml vinculin in 10 mM sodium acetate, pH 5.0 in one flow cell to yield a response of 7200 RU. Remaining reactive groups in the channel were blocked with an injection of 100 μl ethanolamine. Binding experiments were performed by injecting peptides for 120 s at a flow rate of 20 μl/min, at a concentration of 1 mM in the flow buffer over the chip surface to monitor association kinetics, followed by buffer flow for 120 s to measure dissociation kinetics. Between experiments, the surface was regenerated by injecting a 60 second pulse of 10 mM glycine pH 2.
# resting platelets = experiment: Platelet aggregation induced by peptide in resting washed platelets (activation); format: cell-based, human (healthy volunteers); conditions: for Platelet activation, donor 14 06 13 / Platelet activation, donor 18 06 13 / Platelet activation, donor 22 08 13 DONOR1 / Platelet activation, donor 22 08 13 DONOR2: Fig S10 sheet; for Activation: platelet aggregation in resting platelets after 6 minutes incubation with peptide, pal-peptides 20 μM, tat-peptides 50 μM, optical density, aggregometer, mean, n>=3; for Aggregation before TRAP activation, donor d: replicate donor d; for Aggregation before TRAP activation, donor d / Aggregation before TRAP activation, donor f / Aggregation before TRAP activation, donor g: pal 20 μM, tat 50 μM; for Aggregation before TRAP activation, donor f: replicate donor f; for Aggregation before TRAP activation, donor g: replicate donor g
# Procedure, shortened: (§1)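 Washed human platelets (from ACD blood, PGE1-treated) were used at 3x10^5/μl in buffer A pH 7.4 with 1.8 mM CaCl2. Light-transmission aggregometry ran at 37°C with stirring at 1100 rpm. Peptide or buffer was added at 2 min, TRAP 6 min later, and aggregation was recorded for a further 7 min.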
# [2] = format: physicochemical
# Method: Peptides were stored in powder form at -80°C. Prior to use, they were left at room temperature for one hour. They were then mixed with a specific volume of deionised water to bring them to a 1mM concentration and were then aliquoted and frozen at -80°C. They were thawed a single time before use and discarded after an experiment. Peptides which were not soluble in deionised water (pal-APTNEFYA, pal-LEEDDEEGE, pal-TNITYRGT and pal-KLLITIHDRKE) were dissolved in a 10% DMSO and 90% deionised water solution (leading to a final concentration of 0.2% DMSO when combined with platelets, see below). These peptides were further diluted during platelet aggregations.
# TRAP-activated platelets = experiment: Inhibition of TRAP-induced platelet aggregation after pre-incubation with peptide; format: cell-based, human (healthy volunteers); conditions: for Aggregation after TRAP, peptide alone 1x (A 1x / B 1x) / Aggregation after TRAP, peptide alone 2x (A 2x / B 2x): TRAP 2 μM after 6 minutes pre-incubation, mean n = 3; for Aggregation after TRAP, peptide alone 1x (A 1x / B 1x): 4 μM pal-peptides, 10 μM tat-peptides; for Aggregation after TRAP, peptide alone 2x (A 2x / B 2x): double concentration of 4 μM (pal) / 10 μM (tat); for Aggregation after TRAP activation, donor d: replicate donor d; for Aggregation after TRAP activation, donor d / Aggregation after TRAP activation, donor f / Aggregation after TRAP activation, donor g: pal 20 μM, tat 50 μM; for Aggregation after TRAP activation, donor f: replicate donor f; for Aggregation after TRAP activation, donor g: replicate donor g
# Procedure, shortened: as §1
# vinculin [3] = target: vinculin (UniProt P18206)
# Syntenin-1 = Syntenin-1 (UniProt O00560)
# [4] = replicate 14_06_13, peptide 50 µM, unit assumed
# [5] = replicate 18_06_13, peptide 50 µM, unit assumed
# [6] = replicate 22_08_13_DONOR1, peptide 50 µM, unit assumed
# [7] = replicate 22_08_13_DONOR2, peptide 50 µM, unit assumed
# [8] = platelet aggregation induced by 4 μM TRAP in platelets pre-incubated with peptide (low value = inhibition), pal-peptides 20 μM, tat-peptides 50 μM, mean, n>=3
# Sequence of Syntenin-1 (O00560 whole entry): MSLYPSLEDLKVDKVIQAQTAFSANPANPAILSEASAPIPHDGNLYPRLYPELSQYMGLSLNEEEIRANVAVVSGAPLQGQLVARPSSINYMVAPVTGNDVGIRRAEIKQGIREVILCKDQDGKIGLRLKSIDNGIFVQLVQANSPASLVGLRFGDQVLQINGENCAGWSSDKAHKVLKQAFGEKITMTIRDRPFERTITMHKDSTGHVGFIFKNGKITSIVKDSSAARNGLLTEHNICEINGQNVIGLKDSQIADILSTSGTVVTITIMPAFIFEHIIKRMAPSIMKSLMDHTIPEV
molecule,measurement,setting,value
ACTN1_VBS-tat: ACTN1 vinculin-binding peptide with the tat peptide at the C-terminus (WEQLLTTIARTINEVENQIGRKKRRQRRRPPQ),Relative binding affinity to immobilised vinculin,vinculin [1],tat-ACTN1_VBS > TLN1_VBS-tat > ACTN1_VBS-tat > ACTN1_VBS
same,"Platelet activation, donor 14 06 13",resting platelets; [4],45%
same,"Platelet activation, donor 18 06 13",resting platelets; [5],11%
same,"Platelet activation, donor 22 08 13 DONOR1",resting platelets; [6],32%
same,"Platelet activation, donor 22 08 13 DONOR2",resting platelets; [7],4%
same,Platelet activating effect compared with N-terminal tat attachment,"resting platelets; S10 Fig, peptide 50 µM, in words",weaker platelet activating effect
ACTN1_VBS: ACTN1_VBS peptide lacking the tat (WEQLLTTIARTINEVENQI),Relative binding affinity to immobilised vinculin,vinculin [1],tat-ACTN1_VBS > TLN1_VBS-tat > ACTN1_VBS-tat > ACTN1_VBS
same,"Platelet activation, donor 14 06 13",resting platelets; [4],35%
same,"Platelet activation, donor 18 06 13",resting platelets; [5],11%
same,"Platelet activation, donor 22 08 13 DONOR1",resting platelets; [6],7%
same,"Platelet activation, donor 22 08 13 DONOR2",resting platelets; [7],11%
"pal-APTNEFYA [pal-SDC4_tail, N-terminally palmitylated syndecan-4 tail peptide]",Solubility in deionised water,[2],not soluble
same,Aggregation (inhibition effects of syndecan-derived peptides),"TRAP-activated platelets; S2 Table A, peptide 20 μM, TRAP 4 μM, mean, n=6",34
same,"Summary of effects of SDC4-derived palmitylated peptides and scrambled controls, 20μM","TRAP-activated platelets; S2 Table B / S2 Fig, 20 μM, activation of resting platelets and inhibition of aggregation induced by 4 μM TRAP, in words",Inhibitor
same,Platelet aggregation remaining after TRAP (low = inhibition),"TRAP-activated platelets; S3 Table, peptide 5 μM, aggregation after TRAP, n=3",61
same,Platelet aggregation remaining after TRAP (low = inhibition),"TRAP-activated platelets; S3 Table, peptide 20 μM, aggregation after TRAP, n=3",34
same,"Aggregation after TRAP, peptide alone 1x (A 1x / B 1x)",TRAP-activated platelets,27.67
same,"Aggregation after TRAP, peptide alone 2x (A 2x / B 2x)",TRAP-activated platelets,24.67
same,Platelet aggregation after TRAP activation,TRAP-activated platelets; [8],34 ^*
same,"Inhibition, donor 14_06_13","TRAP-activated platelets; replicate 14_06_13, peptide 20 μM, TRAP 4 μM",40
same,"Inhibition, donor 18_06_13","TRAP-activated platelets; replicate 18_06_13, peptide 20 μM, TRAP 4 μM",67
same,"Inhibition, donor 20_06_13","TRAP-activated platelets; replicate 20_06_13, peptide 20 μM, TRAP 4 μM",51
same,"Inhibition, donor 20_08_13","TRAP-activated platelets; replicate 20_08_13, peptide 20 μM, TRAP 4 μM",11
same,Platelet aggregation remaining after TRAP (low = inhibition),"TRAP-activated platelets; replicate 22_08_13_DONOR1, peptide 20 μM, TRAP 4 μM",6
same,Platelet aggregation remaining after TRAP (low = inhibition),"TRAP-activated platelets; replicate 22_08_13_DONOR2, peptide 20 μM, TRAP 4 μM",34
same,"Aggregation after TRAP activation, donor d",TRAP-activated platelets; TRAP 4 μM,9
same,"Aggregation after TRAP activation, donor f",TRAP-activated platelets; TRAP 4 μM,54
same,"Aggregation after TRAP activation, donor g",TRAP-activated platelets; TRAP 4 μM,41
same,"Activation, 5μM","resting platelets; S3 Table, peptide 5 μM, n=3, unit assumed",2%
same,"Activation, 20μM","resting platelets; S3 Table, peptide 20 μM, n=3, unit assumed",2%
same,Activation,resting platelets; unit assumed,7%
same,"Activation, donor 14 06 13","resting platelets; replicate 14_06_13, SDC4 peptides and controls, 20 μM, unit assumed",2%
same,"Activation, donor 18_06_13","resting platelets; replicate 18_06_13, SDC4 peptides and controls, 20 μM, in % (unit assumed)",3
same,"Activation, donor 20_06_13","resting platelets; replicate 20_06_13, SDC4 peptides and controls, 20 μM, in % (unit assumed)",2
same,"Activation, donor 20 08 13","resting platelets; replicate 20_08_13, SDC4 peptides and controls, 20 μM, unit assumed",5%
same,"Activation, donor 22_08_13_DONOR1","resting platelets; replicate 22_08_13_DONOR1, SDC4 peptides and controls, 20 μM",2
same,"Activation, donor 22_08_13_DONOR2","resting platelets; replicate 22_08_13_DONOR2, SDC4 peptides and controls, 20 μM",2
same,"Aggregation before TRAP activation, donor d",resting platelets,2
same,"Aggregation before TRAP activation, donor f",resting platelets,4
same,"Aggregation before TRAP activation, donor g",resting platelets,15
"pal-KLLITIHDRKE-(NH2) [pal-ITGB3_JM, N-terminally palmitylated ITGB3 juxtamembrane peptide]",Solubility in deionised water,[2],not soluble
same,Platelet aggregation remaining after TRAP (low = inhibition),TRAP-activated platelets; [8],73
same,"Aggregation after TRAP activation, donor d",TRAP-activated platelets; TRAP 4 μM,76
same,"Aggregation after TRAP activation, donor f",TRAP-activated platelets; TRAP 4 μM,77
same,"Aggregation after TRAP activation, donor g",TRAP-activated platelets; TRAP 4 μM,68
same,Activation,resting platelets; unit assumed,4%
same,"Aggregation before TRAP activation, donor d",resting platelets,4
same,"Aggregation before TRAP activation, donor f",resting platelets,3
same,"Aggregation before TRAP activation, donor g",resting platelets,5
"pal-LEEDDEEGE [pal-ITGA2B_tail, N-terminally palmitylated ITGA2B tail peptide]",Solubility in deionised water,[2],not soluble
same,"Aggregation after TRAP, peptide alone 1x (A 1x / B 1x)",TRAP-activated platelets,65.67
same,"Aggregation after TRAP, peptide alone 2x (A 2x / B 2x)",TRAP-activated platelets,66
same,Platelet aggregation remaining after TRAP (low = inhibition),TRAP-activated platelets; [8],52
same,"Aggregation after TRAP activation, donor d",TRAP-activated platelets; TRAP 4 μM,74
same,"Aggregation after TRAP activation, donor f",TRAP-activated platelets; TRAP 4 μM,76
same,"Aggregation after TRAP activation, donor g",TRAP-activated platelets; TRAP 4 μM,4
same,Activation,resting platelets; unit assumed,2%
same,"Aggregation before TRAP activation, donor d",resting platelets,2
same,"Aggregation before TRAP activation, donor f",resting platelets,3
same,"Aggregation before TRAP activation, donor g",resting platelets,2
"pal-TNITYRGT [pal-ITGB3_tail, N-terminally palmitylated ITGB3 tail peptide]",Solubility in deionised water,[2],not soluble
same,Platelet aggregation remaining after TRAP (low = inhibition),TRAP-activated platelets; [8],71
same,"Aggregation after TRAP activation, donor d",TRAP-activated platelets; TRAP 4 μM,74
same,"Aggregation after TRAP activation, donor f",TRAP-activated platelets; TRAP 4 μM,77
same,"Aggregation after TRAP activation, donor g",TRAP-activated platelets; TRAP 4 μM,63
same,Activation,resting platelets; unit assumed,3%
same,"Aggregation before TRAP activation, donor d",resting platelets,2
same,"Aggregation before TRAP activation, donor f",resting platelets,5
same,"Aggregation before TRAP activation, donor g",resting platelets,3
tat-ACTN1_VBS (peptide),Activation: platelet aggregation induced in resting platelets after 6 minutes incubation with peptides (50μM),vinculin [3],66
Palmitoyl-APTNEFYA [pal-SDC4_tail],Inhibition: platelet aggregation induced by 4μM TRAP in platelets pre-incubated with peptide (20μM),Syntenin-1,34
